# Measurements: patent US20020137929A1, “1 - (3-heterocyclylphenyl) isothiourea, -isourea, -guanidine and -amidine herbicidal agents” (Intellectual Property Department, BASF Aktiengesellschaft, priority 1998, published 2002)
# How the values were obtained:
# AMBEL (Ragweed, Common) = test: Preemergence herbicidal evaluation; type: in vivo, Ambrosia artemisifolia; conditions: rated 4-5 weeks after treatment
# How it was run: (§1)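 Preemergence soil application of compound, sprayed in aqueous acetone at rates equivalent to about 0.0156 to 0.500 kg per hectare onto freshly sown cups. Plant response was judged by eye on a 0-9 scale four to five weeks later.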
# ORYSAT (Rice, Tebonnet) [1] = test: Preemergence herbicidal evaluation; type: in vivo, Oryza sativa, (L.) Tebonnet; conditions: rated 4-5 weeks after treatment
# How it was run: as §1
# ORYSAT (Rice, Tebonnet) [2] = test: Postemergence herbicidal evaluation; type: in vivo, Oryza sativa, (L.) Tebonnet; conditions: postemergence
# How it was run: (§2)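 Each compound, dispersed in an acetone/water mix (50/50) carrying 0.5% TWEEN 20, is nozzle-sprayed at 40 psi on approximately two-week-old seedlings at about 0.0156–0.500 kg/ha. Plants are assessed 4–5 weeks afterward on a 0–9 scale relative to control; duplicate tests are averaged.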
# [3] = test system: CHEAL (Lambsquarters, Common); test: Postemergence herbicidal evaluation; type: in vivo, Chenopodium album; conditions: postemergence
# How it was run: as §2
# [4] = test system: GLXMAW (Soybean, Williams); test: Preemergence herbicidal evaluation; type: in vivo, Glycine max, (L.) Merr. cv Williams; conditions: rated 4-5 weeks after treatment
# How it was run: as §1
# ZEAMX (Corn, Field) = test: Postemergence herbicidal evaluation; type: in vivo, Zea mays; conditions: postemergence
# How it was run: as §2
# SETVI (Foxtail, Green) = test: Preemergence herbicidal evaluation; type: in vivo, Setaria viridis; conditions: rated 4-5 weeks after treatment
# How it was run: as §1
# MOOVA (Monochoria) = test: Preemergence weed control under flooded paddy conditions; type: in vivo, Monochoria vaginalis; conditions: rated 3-4 weeks after treatment
# How it was run: (§3)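 Silt loam, seeds in top 0.5 cm; flood held 1.5-3 cm; test cpd as acetone/water 50/50 into flood water, ~0.0313-0.500 kg/ha a.i.; greenhouse 3-4 wk; visual 0-9 score vs control.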
# CYPSE (Flatsedge) = test: as above; type: in vivo, Cyperus serotinus; conditions: rated 3-4 weeks after treatment
# How it was run: as §3
# CASOB (Sicklepod) = test: Postemergence herbicidal evaluation; type: in vivo, Cassia obtusifolia; conditions: postemergence
# How it was run: as §2
# GALAP (Galium) = test: Postemergence herbicidal evaluation; type: in vivo, Galium aparine; conditions: postemergence
# How it was run: as §2
structure (smiles),measurement,setting,value
"CN1C(=O)C(CC(=O)NO)SC1=Nc1cc(-n2c(=O)cc(C(F)(F)F)n(C)c2=O)c(F)cc1Cl (stereo not shown) [Compound 162, 2-{{2-Chloro-5-[3,6-dihydro-3-methyl-2,6-dioxo-4-(trifluoromethyl)-1(2H)-pyrimidinyl]-4-fluorophenyl}imino}-3-methyl-4-oxo-5-thiazolidineacetohydroxamic acid]",Preemergence herbicidal rating AMBEL,"AMBEL (Ragweed, Common); 0.0156 kg/ha",0.0
same,Preemergence herbicidal rating AMBEL,"AMBEL (Ragweed, Common); 0.0313 kg/ha",3.0
same,Preemergence herbicidal rating AMBEL,"AMBEL (Ragweed, Common); 0.0625 kg/ha",5.0
same,Preemergence herbicidal rating AMBEL,"AMBEL (Ragweed, Common); 0.1250 kg/ha",9.0
same,Preemergence herbicidal rating AMBEL,"AMBEL (Ragweed, Common); 0.2500 kg/ha",9.0
same,Preemergence herbicidal rating ORYSAT,"ORYSAT (Rice, Tebonnet) [1]; 0.0156 kg/ha",2.0
same,Preemergence herbicidal rating ORYSAT,"ORYSAT (Rice, Tebonnet) [1]; 0.0313 kg/ha",3.0
same,Preemergence herbicidal rating ORYSAT,"ORYSAT (Rice, Tebonnet) [1]; 0.0625 kg/ha",5.0
same,Preemergence herbicidal rating ORYSAT,"ORYSAT (Rice, Tebonnet) [1]; 0.1250 kg/ha",6.0
same,Preemergence herbicidal rating ORYSAT,"ORYSAT (Rice, Tebonnet) [1]; 0.2500 kg/ha",8.0
same,herbicidal rating ORYSAT,"ORYSAT (Rice, Tebonnet) [2]; rate 0.0156 kg/ha",0.5
same,herbicidal rating ORYSAT,"ORYSAT (Rice, Tebonnet) [2]; rate 0.0313 kg/ha",1.5
same,herbicidal rating ORYSAT,"ORYSAT (Rice, Tebonnet) [2]; rate 0.0625 kg/ha",1.5
same,herbicidal rating CHEAL,[3]; rate 0.0156 kg/ha,9.0
same,herbicidal rating CHEAL,[3]; rate 0.0313 kg/ha,9.0
same,herbicidal rating CHEAL,[3]; rate 0.0625 kg/ha,9.0
same,Preemergence herbicidal rating GLXMAW,[4]; 0.0156 kg/ha,2.0
same,Preemergence herbicidal rating GLXMAW,[4]; 0.0313 kg/ha,2.0
same,Preemergence herbicidal rating GLXMAW,[4]; 0.0625 kg/ha,2.0
same,Preemergence herbicidal rating GLXMAW,[4]; 0.1250 kg/ha,5.0
same,Preemergence herbicidal rating GLXMAW,[4]; 0.2500 kg/ha,9.0
same,herbicidal rating ZEAMX,"ZEAMX (Corn, Field); rate 0.0156 kg/ha",4.5
same,herbicidal rating ZEAMX,"ZEAMX (Corn, Field); rate 0.0313 kg/ha",5.0
same,herbicidal rating ZEAMX,"ZEAMX (Corn, Field); rate 0.0625 kg/ha",5.5
same,Preemergence herbicidal rating SETVI,"SETVI (Foxtail, Green); 0.0156 kg/ha",9.0
same,Preemergence herbicidal rating SETVI,"SETVI (Foxtail, Green); 0.0313 kg/ha",9.0
same,Preemergence herbicidal rating SETVI,"SETVI (Foxtail, Green); 0.0625 kg/ha",9.0
same,Preemergence herbicidal rating SETVI,"SETVI (Foxtail, Green); 0.1250 kg/ha",9.0
same,Preemergence herbicidal rating SETVI,"SETVI (Foxtail, Green); 0.2500 kg/ha",9.0
same,"herbicidal effect rating, MOOVA",MOOVA (Monochoria); 0.0313 kg/ha,7.0
same,"herbicidal effect rating, MOOVA",MOOVA (Monochoria); 0.0625 kg/ha,7.0
same,"herbicidal effect rating, MOOVA",MOOVA (Monochoria); 0.1250 kg/ha,7.0
same,"herbicidal effect rating, MOOVA",MOOVA (Monochoria); 0.2500 kg/ha,9.0
same,"herbicidal effect rating, CYPSE",CYPSE (Flatsedge); 0.1250 kg/ha,9.0
same,"herbicidal effect rating, CYPSE",CYPSE (Flatsedge); 0.2500 kg/ha,9.0
same,herbicidal rating CASOB,CASOB (Sicklepod); rate 0.0156 kg/ha,0.0
same,herbicidal rating CASOB,CASOB (Sicklepod); rate 0.0313 kg/ha,0.0
same,herbicidal rating CASOB,CASOB (Sicklepod); rate 0.0625 kg/ha,2.0
same,herbicidal rating GALAP,GALAP (Galium); rate 0.0156 kg/ha,0.0
same,herbicidal rating GALAP,GALAP (Galium); rate 0.0313 kg/ha,3.0
same,herbicidal rating GALAP,GALAP (Galium); rate 0.0625 kg/ha,6.0
"Cn1c(C(F)(F)F)cc(=O)n(-c2cc(N=C3SCC(=O)N3CC(F)(F)F)c(Cl)cc2F)c1=O [Compound 163, 3-{4-Chloro-2-fluoro-5-{[4-oxo-3-(2,2,2-trifluoroethyl)-2-thiazolidinylidene]amino}phenyl}-1-methyl-6-(trifluoromethyl)-2,4(1H,3H)-pyrimidinedione]",Preemergence herbicidal rating AMBEL,"AMBEL (Ragweed, Common); 0.0156 kg/ha",0.0
same,Preemergence herbicidal rating AMBEL,"AMBEL (Ragweed, Common); 0.0313 kg/ha",3.0
same,Preemergence herbicidal rating AMBEL,"AMBEL (Ragweed, Common); 0.0625 kg/ha",9.0
same,Preemergence herbicidal rating AMBEL,"AMBEL (Ragweed, Common); 0.1250 kg/ha",9.0
same,Preemergence herbicidal rating AMBEL,"AMBEL (Ragweed, Common); 0.2500 kg/ha",9.0
same,Preemergence herbicidal rating ORYSAT,"ORYSAT (Rice, Tebonnet) [1]; 0.0156 kg/ha",1.0
same,Preemergence herbicidal rating ORYSAT,"ORYSAT (Rice, Tebonnet) [1]; 0.0313 kg/ha",3.0
same,Preemergence herbicidal rating ORYSAT,"ORYSAT (Rice, Tebonnet) [1]; 0.0625 kg/ha",5.0
same,Preemergence herbicidal rating ORYSAT,"ORYSAT (Rice, Tebonnet) [1]; 0.1250 kg/ha",7.0
same,Preemergence herbicidal rating ORYSAT,"ORYSAT (Rice, Tebonnet) [1]; 0.2500 kg/ha",8.0
same,herbicidal rating ORYSAT,"ORYSAT (Rice, Tebonnet) [2]; rate 0.0156 kg/ha",1.0
same,herbicidal rating ORYSAT,"ORYSAT (Rice, Tebonnet) [2]; rate 0.0313 kg/ha",1.5
same,herbicidal rating ORYSAT,"ORYSAT (Rice, Tebonnet) [2]; rate 0.0625 kg/ha",2.0
same,herbicidal rating CHEAL,[3]; rate 0.0156 kg/ha,9.0
same,herbicidal rating CHEAL,[3]; rate 0.0313 kg/ha,9.0
same,herbicidal rating CHEAL,[3]; rate 0.0625 kg/ha,9.0
same,Preemergence herbicidal rating GLXMAW,[4]; 0.0156 kg/ha,0.0
same,Preemergence herbicidal rating GLXMAW,[4]; 0.0313 kg/ha,2.0
same,Preemergence herbicidal rating GLXMAW,[4]; 0.0625 kg/ha,3.0
same,Preemergence herbicidal rating GLXMAW,[4]; 0.1250 kg/ha,3.0
same,Preemergence herbicidal rating GLXMAW,[4]; 0.2500 kg/ha,5.0
same,herbicidal rating ZEAMX,"ZEAMX (Corn, Field); rate 0.0156 kg/ha",5.0
same,herbicidal rating ZEAMX,"ZEAMX (Corn, Field); rate 0.0313 kg/ha",5.5
same,herbicidal rating ZEAMX,"ZEAMX (Corn, Field); rate 0.0625 kg/ha",5.5
same,Preemergence herbicidal rating SETVI,"SETVI (Foxtail, Green); 0.0156 kg/ha",9.0
same,Preemergence herbicidal rating SETVI,"SETVI (Foxtail, Green); 0.0313 kg/ha",9.0
same,Preemergence herbicidal rating SETVI,"SETVI (Foxtail, Green); 0.0625 kg/ha",9.0
same,Preemergence herbicidal rating SETVI,"SETVI (Foxtail, Green); 0.1250 kg/ha",9.0
same,Preemergence herbicidal rating SETVI,"SETVI (Foxtail, Green); 0.2500 kg/ha",9.0
same,"herbicidal effect rating, MOOVA",MOOVA (Monochoria); 0.0313 kg/ha,9.0
same,"herbicidal effect rating, MOOVA",MOOVA (Monochoria); 0.0625 kg/ha,9.0
same,"herbicidal effect rating, MOOVA",MOOVA (Monochoria); 0.1250 kg/ha,9.0
same,"herbicidal effect rating, MOOVA",MOOVA (Monochoria); 0.2500 kg/ha,9.0
same,"herbicidal effect rating, CYPSE",CYPSE (Flatsedge); 0.1250 kg/ha,9.0
same,"herbicidal effect rating, CYPSE",CYPSE (Flatsedge); 0.2500 kg/ha,9.0
same,herbicidal rating CASOB,CASOB (Sicklepod); rate 0.0156 kg/ha,0.0
same,herbicidal rating CASOB,CASOB (Sicklepod); rate 0.0313 kg/ha,0.0
same,herbicidal rating CASOB,CASOB (Sicklepod); rate 0.0625 kg/ha,3.0
same,herbicidal rating GALAP,GALAP (Galium); rate 0.0156 kg/ha,0.0
same,herbicidal rating GALAP,GALAP (Galium); rate 0.0313 kg/ha,3.0
same,herbicidal rating GALAP,GALAP (Galium); rate 0.0625 kg/ha,5.0
